ChEMBL document CHEMBL1201862, “PubChem BioAssay data set” (2004)
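All cell lines were grown in 96-well plates and treated with compound for 48 hours. The concentration for 50% growth inhibition is given as GI50.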 Active and inactive are the calls of the source. No stated cut-off is given here; in the data, active = GI50 up to about 1.1 µM and inactive = higher.

What was measured:
Assay in all cases: NCI anticancer screen, dose series, 48 h
[1] = test system: HCC 2998
[2] = test system: CAKI-1
[3] = test system: U-251
[4] = test system: HCT-15
[5] = test system: RPMI-8226
[6] = test system: TK-10
[7] = test system: A498
[8] = test system: SK-MEL-2
[9] = test system: NCI/ADR-RES
[10] = test system: DU-145
[11] = test system: OVCAR-4
[12] = test system: 786-0
[13] = test system: PC-3
[14] = test system: OVCAR-8
[15] = test system: UO-31
[16] = test system: SK-OV-3
[17] = test system: LOX IMVI
[18] = test system: EKVX
[19] = test system: K562
[20] = test system: NCI-H522

SMILES | GI50 [1] | GI50 [2] | GI50 [3] | GI50 [4] [µM] | GI50 [5] | GI50 [6] | GI50 [7] | GI50 [8] | GI50 [9] | GI50 [10] | GI50 [11] | GI50 [12] | GI50 [13] | GI50 [14] | GI50 [15] | GI50 [16] | GI50 [17] | GI50 [18] | GI50 [19] | GI50 [20]
O=[N+]([O-])/C=C/c1cc2ccc3ccccc3c2[nH]1 | 1.92 µM (inactive) | 2.23 µM (inactive) | 1.34 µM (inactive) | 1.72 | 0.229 µM (active) | 1.58 µM (inactive) | 1.23 µM (inactive) | 0.796 µM (active) | 2.42 µM (inactive) | 1.9 µM (inactive) | 1.98 µM (inactive) | 1.36 µM (inactive) | 1.46 µM (inactive) | 2.28 µM (inactive) | 1.56 µM (inactive) | 4.07 µM (inactive) | 1.23 µM (inactive) | 2.76 µM (inactive) | 1.8 µM (inactive) | 0.851 µM (active)
C/C(=N\Nc1nc2cc(C)ccc2s1)c1ccccn1 | 1.29 µM (inactive) | 0.0562 µM (active) | 0.946 µM (active) | 0.272 | 0.273 µM (active) | 2.22 µM (inactive) | 1.09 µM (active) | 0.4 µM (active) | 0.261 µM (active) | 0.652 µM (active) | 0.324 µM (active) | 0.519 µM (active) | 0.593 µM (active) | 0.18 µM (active) | 0.117 µM (active) | 0.49 µM (active) | 0.481 µM (active) | 0.143 µM (active) | 0.0948 µM (active) | 0.148 µM (active)
Cc1ccc(/N=N/c2c(C)nn(C(=O)CC(=O)Nc3ccccc3)c2C)cc1C | > 100 µM (inactive) | > 100 µM (inactive) | > 100 µM (inactive) | > 100 | > 100 µM (inactive) | > 100 µM (inactive) | > 100 µM (inactive) | > 100 µM (inactive) | > 100 µM (inactive) | > 100 µM (inactive) | > 100 µM (inactive) | > 100 µM (inactive) | > 100 µM (inactive) | > 100 µM (inactive) | > 100 µM (inactive) | > 100 µM (inactive) | > 100 µM (inactive) | 26.2 µM (inactive) | – | > 100 µM (inactive)
COC(=O)CCCC(=O)/C(=N\Nc1ccc(Cl)cc1)Nc1c(Cl)cccc1Cl | 58.7 µM (inactive) | > 100 µM (inactive) | 55.5 µM (inactive) | 72.3 | 21.8 µM (inactive) | > 74.1 µM (inactive) | 29.5 µM (inactive) | 24.6 µM (inactive) | > 74.1 µM (inactive) | 52.4 µM (inactive) | 46.3 µM (inactive) | 86.1 µM (inactive) | 24 µM (inactive) | > 100 µM (inactive) | 34.4 µM (inactive) | > 100 µM (inactive) | 64.1 µM (inactive) | 51.8 µM (inactive) | 48.1 µM (inactive) | 28.4 µM (inactive)
COc1cc2c(cc1OC)C(N)CC2=O (configuration not stated) | > 100 µM (inactive) | > 100 µM (inactive) | > 100 µM (inactive) | > 100 | > 100 µM (inactive) | > 100 µM (inactive) | > 100 µM (inactive) | > 100 µM (inactive) | > 100 µM (inactive) | > 100 µM (inactive) | > 100 µM (inactive) | > 100 µM (inactive) | > 100 µM (inactive) | > 100 µM (inactive) | > 100 µM (inactive) | > 100 µM (inactive) | > 100 µM (inactive) | > 100 µM (inactive) | > 100 µM (inactive) | > 100 µM (inactive)
COc1ccc2c3c(ccc2c1)NC(C(=O)O)CC3 (configuration not stated) | 44.3 µM (inactive) | 88.3 µM (inactive) | 38.2 µM (inactive) | 51.8 | 17.1 µM (inactive) | 52.1 µM (inactive) | 27.7 µM (inactive) | > 100 µM (inactive) | 46.3 µM (inactive) | > 100 µM (inactive) | 65.3 µM (inactive) | 97.7 µM (inactive) | 74.6 µM (inactive) | 64.4 µM (inactive) | 47 µM (inactive) | > 100 µM (inactive) | 46.5 µM (inactive) | 67.8 µM (inactive) | 35.2 µM (inactive) | 29.2 µM (inactive)
O=C1c2c(ccc3c2CCC3)CC12Cc1cc3c(cc1C2)CCC3 | > 100 µM (inactive) | > 100 µM (inactive) | 70.3 µM (inactive) | > 100 | > 100 µM (inactive) | > 100 µM (inactive) | > 100 µM (inactive) | > 100 µM (inactive) | > 100 µM (inactive) | > 100 µM (inactive) | > 100 µM (inactive) | > 100 µM (inactive) | > 100 µM (inactive) | > 100 µM (inactive) | > 100 µM (inactive) | > 100 µM (inactive) | > 100 µM (inactive) | > 100 µM (inactive) | > 100 µM (inactive) | > 100 µM (inactive)
N#Cc1nc(-c2ccccc2C(=O)O)oc1N | > 100 µM (inactive) | > 100 µM (inactive) | > 100 µM (inactive) | > 100 | > 100 µM (inactive) | > 100 µM (inactive) | > 100 µM (inactive) | > 100 µM (inactive) | > 100 µM (inactive) | > 100 µM (inactive) | > 100 µM (inactive) | > 100 µM (inactive) | > 100 µM (inactive) | > 100 µM (inactive) | > 100 µM (inactive) | > 100 µM (inactive) | > 100 µM (inactive) | > 100 µM (inactive) | > 100 µM (inactive) | > 100 µM (inactive)
Cc1nc(N)nc(N)c1N1CCN(Cc2ccccc2)CC1 | 25.2 µM (inactive) | 37.1 µM (inactive) | 48.8 µM (inactive) | 9.42 | > 39 µM (inactive) | 66.1 µM (inactive) | 42.5 µM (inactive) | 64.6 µM (inactive) | 12.8 µM (inactive) | 37.2 µM (inactive) | > 100 µM (inactive) | 4.73 µM (inactive) | 7.48 µM (inactive) | 14.9 µM (inactive) | 45.4 µM (inactive) | > 55.1 µM (inactive) | 8.15 µM (inactive) | > 53.6 µM (inactive) | 6.44 µM (inactive) | 24.8 µM (inactive)
CN(C)c1ccc(C=C2C(=O)NC(=S)NC2=O)c2ccccc12 | > 100 µM (inactive) | 98.9 µM (inactive) | 34.3 µM (inactive) | 41.7 | 39.4 µM (inactive) | > 100 µM (inactive) | 53.7 µM (inactive) | 62.8 µM (inactive) | > 100 µM (inactive) | > 100 µM (inactive) | > 100 µM (inactive) | 39.8 µM (inactive) | > 100 µM (inactive) | 27 µM (inactive) | 60.4 µM (inactive) | > 100 µM (inactive) | 26.9 µM (inactive) | > 100 µM (inactive) | 40.9 µM (inactive) | 18.5 µM (inactive)
CSc1[nH]nc(N)c1C(=O)Nc1ccccc1 | > 100 µM (inactive) | > 100 µM (inactive) | > 100 µM (inactive) | > 100 | > 100 µM (inactive) | > 100 µM (inactive) | > 100 µM (inactive) | > 100 µM (inactive) | > 100 µM (inactive) | > 100 µM (inactive) | > 100 µM (inactive) | > 100 µM (inactive) | > 100 µM (inactive) | > 100 µM (inactive) | > 100 µM (inactive) | > 100 µM (inactive) | > 100 µM (inactive) | > 100 µM (inactive) | > 100 µM (inactive) | 52.4 µM (inactive)
O=C(Nc1c(Cl)cccc1Cl)c1c(Cl)c(Cl)c(Cl)c(Cl)c1-c1nc2ccccc2[nH]1 | 38.5 µM (inactive) | 62.7 µM (inactive) | – | 98.9 | 37.2 µM (inactive) | – | 11.4 µM (inactive) | > 100 µM (inactive) | 51.1 µM (inactive) | 62.2 µM (inactive) | 43.6 µM (inactive) | 36.4 µM (inactive) | > 100 µM (inactive) | 33 µM (inactive) | 80.5 µM (inactive) | 0.0507 µM (active) | 46.8 µM (inactive) | 9.48 µM (inactive) | 59.3 µM (inactive) | 37 µM (inactive)
COc1ccc(/C=C/C(=O)N[C@@H]2C(=O)N3[C@@H]2SC(C)(C)[C@@H]3C(=O)O)cc1 | > 100 µM (inactive) | > 100 µM (inactive) | > 100 µM (inactive) | > 100 | > 100 µM (inactive) | > 100 µM (inactive) | > 100 µM (inactive) | > 100 µM (inactive) | > 100 µM (inactive) | > 100 µM (inactive) | > 100 µM (inactive) | > 100 µM (inactive) | > 100 µM (inactive) | > 100 µM (inactive) | > 100 µM (inactive) | > 100 µM (inactive) | > 100 µM (inactive) | > 100 µM (inactive) | > 100 µM (inactive) | 69.2 µM (inactive)
OC1C2CCCCN2C[C@@H](O)[C@H]1O (some centres not stated) | > 100 µM (inactive) | > 100 µM (inactive) | > 100 µM (inactive) | > 100 | > 100 µM (inactive) | > 100 µM (inactive) | > 100 µM (inactive) | > 100 µM (inactive) | > 100 µM (inactive) | > 100 µM (inactive) | > 100 µM (inactive) | > 100 µM (inactive) | > 100 µM (inactive) | > 100 µM (inactive) | > 100 µM (inactive) | > 100 µM (inactive) | > 100 µM (inactive) | > 100 µM (inactive) | > 100 µM (inactive) | 76.6 µM (inactive)
